The values that follow come from patent publication US20090053138A1, “Stabilized Aptamers to Platelet Derived Growth Factor and their Use as Oncology Therapeutics” (priority 2002, published 2009).

pIC50: −log10 of the molar value. Like-named read-outs stand apart in the source and are kept apart here. {PEG40k} = 40 kDa polyethylene glycol; [invdT] = inverted (3'-3') thymidine; [HEG] = hexaethylene glycol spacer

The subject of one data set is Lewis lung carcinoma. The data set can be described thus: Mouse Lewis lung carcinoma model. The settings on record: scrambled aptamer 50 mg/kg.
In the next data set the target is PDGF BB (Homo sapiens, UniProt P01127). The data set can be described thus: 3T3 cell proliferation assay (PDGF-BB induced). It counts as cell-based, rat. Also noted: purchased PeproTech, Rocky Hill, N.J. The method, then:
3T3 cells, a rat fibroblast cell line (ATCC, Manassas, Va.), were plated 3,000 cells/well in a 96 well plate one day prior to the start of the assay in 100 ul DMEM/10% FCS. The following day, cells were washed once with straight DMEM and then 75 ul DMEM/0.8% FCS was added to each well. […] Cells were incubated for 3 days. Following incubation 10 ul MTT (Promega, Madison, Wis.) was added to each well and incubated for an additional 1.5 hours. Media was then removed, 200 ul Isopropanol (2-propanol) was added to each well, cells were re-suspended thoroughly and absorbance at 570 nm was read on a 96 well plate reader.
(§1) 3T3 cells, which are derived from a rat fibroblast cell line (ATCC, Manassas, Va.), were used in a proliferation assay to test potency of modified ARC513 aptamers. 3T3 fibroblast cells have PDGF receptors on their cell-surface and respond to mitogen, e.g., PDGF stimulation by proliferation. The assay was performed as follows: 3T3 cells were plated 3,000 cells/well in a 96 well plate one day prior to the start of the assay in 100 ul DMEM/10% FCS. The following day, cells were washed once with straight DMEM and then 75 ul DMEM/0.8% FCS was added to each well. Then 25 ul of PDGF-BB (PeproTech, Rocky Hill, N.J.) at a 50 ng/ml final concentration was added to each well +/− aptamer condition to be tested. […] The functional PDGF aptamer dilutions usually consisted of 6 points in 2-fold serial dilutions.
Cells were incubated for 3 days. Following incubation 10 ul MTT (Promega, Madison, Wis.) was added to each well and incubated for an additional 1.5 hours. Media was removed, 200 μl Isopropanol (2-propanol) was added to each well, cells were re-suspended thoroughly and absorbance at 570 nm was read on a 96 well plate reader. The present example depicts the potency comparison of PDGF aptamer ARC: 513 to that of ARC 513 variants.
The 3T3 proliferation assay previously described was used to test potency of all PEG conjugated ARC513 variants described immediately above. The assay was performed as follows: 3T3 cells were plated 3,000 cells/well in a 96 well plate one day prior to the start of the assay in 100 ul DMEM/10% FCS. The following day, cells were washed once with straight DMEM and then 75 ul DMEM/0.8% FCS was added to each well. Then 25 ul of PDGF-BB (PeproTech, Rocky Hill, N.J.) at a 50 ng/ml final concentration was added to each well +/− aptamer condition to be tested. […] The functional PDGF aptamer dilutions usually consisted of 6 points in 2-fold serial dilutions.
Cells were incubated for 3 days. Following incubation 10 ul MTT (Promega, Madison, Wis.) was added to each well and incubated for an additional 1.5 hours. Media was removed, 200 μl Isopropanol (2-propanol) was added to each well, cells were re-suspended thoroughly and absorbance at 570 nm was read on a 96 well plate reader. The present example depicts the potency comparison of PDGF aptamer ARC513 to that of PEGylated ARC513 aptamers.
as §1, with “3T3” for “3T3 cells, which are derived from a rat fibroblast cell line (ATCC, Manassas, Va.), were used in a proliferation assay to test potency of modified ARC513 aptamers. 3T3”, “100 μl” for “100 ul”
Cells were incubated for 3 days. Following incubation 10 ul MTT (Promega, Madison, Wis.) was added to each well and incubated for an additional 1.5 hours. Media was removed, […] Isopropanol (2-propanol) was added to each well, cells were re-suspended thoroughly and absorbance at 570 nm was read on a 96 well plate reader.

A further data set deals with PDGF. The data set can be described thus: PDGF-driven Elk Luciferase reporter gene assay. The settings on record: PDGF 50 ng/ml, 3T3 cells. The format is cell-based. The method, then: 10,000 3T3 cells/well were plated in DMEM/10% FBS in a 96 well plate. They were transfected using FuGene (Roche, Indianapolis, Ind.) at 3:1 ratio with 5 ng of ELK-1 (Stratagene, La Jolla, Calif.) and 20 ng of pFR-Luciferase plasmids (Stratagene, La Jolla, Calif.). When PDGF is added at a final concentration of 50 ng/ml to 3T3 cells, an increase in the Luciferase signal can be observed which corresponds to the effect of the mitogen on the reporter gene. Steady Glo Luciferase assay (Promega, Madison, Wis.) was used to detect luciferase. […] (FIG. 17.)
(In a reporter assay the amount or activity of a reporter protein is the signal.)

The nature of data set [1]: Pharmacokinetics of ARC126 5′ PEG conjugates in mice.
Description: (§2) The pharmacokinetic (PK) data shown in FIG. 12A was subjected to non-compartmental analysis (NCA) using the industry-standard software package WinNonLin™ v.4.0 (Pharsight Corp., Mountain View, Calif.). […] The pharmacokinetic (PK) data shown in FIG. 12B was subjected to noncompartmental analysis (NCA) using the industry-standard software package WinNonLin™ v.4.0 (Pharsight Corp., Mountain View, Calif.).
(§3) The pharmacokinetic (PK) data shown in FIG. 12B was subjected to noncompartmental analysis (NCA) using the industry-standard software package WinNonLin™ v.4.0 (Pharsight Corp., Mountain View, Calif.).
For data set [2] the following is noted: mouse, in vivo, 10 mg/kg.
Description: as §2, §3
Where [3] appears, read: IV administration at 10 mg/kg in mice.

Chain of PDGF BB (P01127 82-190 limits assumed): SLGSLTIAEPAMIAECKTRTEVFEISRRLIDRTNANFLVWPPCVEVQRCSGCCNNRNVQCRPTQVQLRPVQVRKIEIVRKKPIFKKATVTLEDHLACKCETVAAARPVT
Description for Lewis lung carcinoma: A 1 mm^3 piece of Lewis lung carcinoma was implanted under the dorsal skin of wild-type C57BL/6 mice and allowed to grow. […] At the end of the seven day period, the mice were anesthetized, and the following tissues were fixed by vascular perfusion with 1% paraformaldehyde, removed and frozen for cryotstat sectioning: tumor (Lewis lung carcinoma), pancreas, liver, kidney, trachea, spleen, jejunum, and thyroid tissue. The resulting slides were stained with antibodies against various markers as described below.
Sections of tumors were cut (80 μm) and stained with either anti-CD31 or anti-α smooth muscle actin (“α-SMA”) antibodies. Digital fluorescence microscopic images were obtained for area density measurements by using a CoolCam low-light 3-chip RGB CCD camera. […] In addition, the tumors were imaged by confocal microscopy. […]
Sections of tumors were cut (80 μm) and stained with either anti-CD31 or anti-type IV collagen antibodies. Digital fluorescence microscopic images were obtained for area density measurements by using a CoolCam camera. […]
Pericyte expression was measured using the Cool Cam and confocal images were also taken.
The extent of pericyte colocalization with endothelial cells was then measured on digital Cool Cam images.
The extent of pericyte colocalization with endothelial cells was measured on digital CoolCam images. […]

For the substance “5′-(SEQ ID NO.4)-HEG-(SEQ ID NO:5)-HEG-(SEQ ID NO:6)-3 (chain 1 CAGCGUACG; chain 2 CGTACCGATUCA; chain 3 TGAAGCUG; HEG spacers joining pieces; synthetic aptamer; modified_base (4)..(4) cytidine is 2′-fluoro; modified_base (5)..(5) gm; modified_base (6)..(6) uridine is 2′-fluoro; modified_base (8)..(8) cytidine is 2′-fluoro; modified_base (9)..(9) gm; modified_base (7)..(7) gm; modified_base (10)..(10) uridine is 2′-fluoro; modified_base (11)..(11) cytidine is 2′-fluoro; modified_base (12)..(12) adenosine is 2′-O-Methyl; modified_base (6)..(6) cytidine is 2′-fluoro; modified_base (7)..(7) uridine is 2′-fluoro; modified_base (8)..(8) gm) [ARC128, reference compound]”, in the data set with Lewis lung carcinoma, the “effect on tumor vasculature (confocal images)” value is reported as “did not affect the tumor vasculature”. Further, the “effect on 3T3 cell proliferation” value in the data set with PDGF BB (scrambled control) was “never displays an effect”.

As usually defined, the pIC50 is the negative decadic logarithm of the IC50, by convention in mol/L. Low readings indicate a large IC50, high ones a small IC50. For the substance “5′-[40 K PEG]-(SEQ ID NO:1)-HEG-(SEQ ID NO:2)-HEG-(SEQ ID NO:3)-3′-dT-3′ (chain 1 CAGGCUACG; chain 2 CGTAGAGCAUCA; chain 3 TGATCCUG; piece 1: 2'-fluoro at 6, 8, 2'-O-methyl at 9, 5' {PEG40k}, 3' [HEG], other sugars and backbone not given here; piece 2: 2'-O-methyl at 5, 7, 12, 2'-fluoro at 10, 11, 3' [HEG], other sugars and backbone not given here; piece 3: 2'-fluoro at 5, 6, 7, 2'-O-methyl at 8, 3' [invdT], other sugars and backbone not given here) [ARC127]”, in the data set on PDGF, the negative logarithm of the IC50 (pIC50) was at least 8.70 and the “concentration reducing the Luciferase signal to no mitogen levels” value came to 3 nM. Also, in data set [1] (IP, 10 mg/kg in mice), the “AUC” value came out at 143605.5 nM·h, the “MRT” value worked out at 11.231 h and the “tmax” value was 8 h. For the same substance, in data set [1] (setting [3]), the Cmax came out at 61 µM, the “MRT” value is 5.08 h and the “Vs” value worked out at 0.0001 L/kg. In data set [1] (IV, 10 mg/kg in mice), the “AUC” value was 229686.8 nM·h, the “MRT” value came to 6.573 h and the “tmax” value came out at 2 h. The “plasma concentration at 24 hrs post-dose” value in data set [1] (IV, IP or SC, 10 mg/kg in mice) was about 1. Moreover, in data set [1] (SC, 10 mg/kg in mice), the “AUC” value amounted to 55030.91 nM·h, the “MRT” value worked out at 16.632 h and the “tmax” value was determined as 8 h. In addition, the “systemic bioavailability, F” value in data set [1] (intraperitoneal (IP), 10 mg/kg in mice) is reported as about 63%. The “systemic bioavailability, F” value in data set [1] (subcutaneous (SC), 10 mg/kg in mice) is given as about 24%. Also, in the data set with PDGF BB, the “concentration reducing the PDGF driven increase in proliferation to background levels” value is given as 30 nM and the “potency compared to PDGF neutralizing polyclonal antibody” value is listed as “better potency”. Further, the “potency of legacy aptamers vs newly synthesized” value in the data set with PDGF BB (after lyophilization and storage at −20 degrees celsius for 2 years) is recorded as “just as potent”. In addition, the “effect of 5′ conjugation to 30 kDa and 40 kDa PEG groups on in vitro activity” value with PDGF BB (relative to ARC126) is recorded as “does not significantly reduce the in vitro activity”. Besides, in data set [2] (ip), the Cmax was 12.8 µM; the “Vz” value worked out at 0.078 L/kg; the “bioavailability, F” value stood at 0.625; the “t1/2” value is 7.856 h. In addition, in data set [2] (iv), the Cmax stood at 29.7 µM; the “Vz” value is recorded as 0.053 L/kg; the “bioavailability, F” value is reported as 1.000. In addition, in data set [2] (sc), the Cmax was found to be 3.18 µM; the “Vz” value is 0.238 L/kg; the “bioavailability, F” value is recorded as 0.240; the “t1/2” value is 9.176 h.
